This passage reports IC50 results from US12668586B2, “AhR inhibitor, use thereof, and preparation method therefor” (CHONGQING PHARSCIN INNOBIO CO., LTD., priority 2021, dated 2026).

SMILES strings stand for the structures. Where only a bound is given, the exact number is not on record here.

This experiment deals with T1, AhR (Homo sapiens, UniProt P35869).
T1 sequence (P35869 11-848): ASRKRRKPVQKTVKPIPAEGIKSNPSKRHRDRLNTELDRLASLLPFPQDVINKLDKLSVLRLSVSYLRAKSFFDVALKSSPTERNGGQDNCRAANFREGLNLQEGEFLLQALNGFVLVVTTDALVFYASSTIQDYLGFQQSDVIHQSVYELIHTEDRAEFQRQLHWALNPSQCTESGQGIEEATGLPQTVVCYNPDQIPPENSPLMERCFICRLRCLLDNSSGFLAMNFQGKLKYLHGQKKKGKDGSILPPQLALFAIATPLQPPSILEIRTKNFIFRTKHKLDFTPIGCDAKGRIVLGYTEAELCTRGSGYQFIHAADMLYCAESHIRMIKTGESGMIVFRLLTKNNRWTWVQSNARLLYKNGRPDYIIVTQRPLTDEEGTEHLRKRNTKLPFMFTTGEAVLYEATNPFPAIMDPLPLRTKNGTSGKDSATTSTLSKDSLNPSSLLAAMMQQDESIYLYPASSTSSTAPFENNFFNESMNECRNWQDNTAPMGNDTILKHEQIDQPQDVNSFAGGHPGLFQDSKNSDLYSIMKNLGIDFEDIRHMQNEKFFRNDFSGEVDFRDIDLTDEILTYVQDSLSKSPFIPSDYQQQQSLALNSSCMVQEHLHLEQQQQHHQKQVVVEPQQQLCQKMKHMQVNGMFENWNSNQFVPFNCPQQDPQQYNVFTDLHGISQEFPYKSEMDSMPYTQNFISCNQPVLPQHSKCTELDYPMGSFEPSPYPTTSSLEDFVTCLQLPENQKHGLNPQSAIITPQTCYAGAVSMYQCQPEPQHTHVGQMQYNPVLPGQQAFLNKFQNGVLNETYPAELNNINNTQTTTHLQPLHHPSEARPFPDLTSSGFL
Nature of the experiment: AhR inhibitory activity experiment, in vitro assay 1: HepG2-Lucia AhR cells, Lucia luciferase reporter (QUANTI-Luc). To be noted: 24 hours incubation at 37° C., Lucia luciferase in supernatant, read-out: AhR inhibitory activity C50. In kind it is cell-based. As to the method:
Test Example: AhR Inhibitory Activity Experiment
When QUANTI-Luc™ (InvivoGen Company) testing reagents are used, AhR gene signaling pathways can be studied by monitoring the activity of Lucia luciferase in the cell culture supernatant.
In Vitro Assay 1: Assay on Inhibitory Activity in Human Cell Lines
Adherent cell layers of HepG2-Lucia™ AhR cells in a logarithmic growth phase were washed with PBS, and then the cells were isolated with trypsin. The isolated cells were centrifuged at 1000 RPM for 5 minutes, the supernatant was removed, and the cells were re-suspended with a test medium by 1.25×10^5 cells/ml.
20,000 cells were added to each well of a 96-well plate, and the 96-well plate was placed in a CO2 incubator to incubate the cells at 37° C. for 24 hours in the absence (negative control) or presence of test compounds with gradient increasing concentrations (typical dilutions: 169 pmol/L, 0.5 nmol/L, 1.5 nmol/L; 4.6 nmol/L, 13.7 nmol/L, 41 nmol/L, 123 nmol/L, 370 nmol/L, 1.1 μmol/L, 3.3 μmol/L and 10 μmol/L, in triplicate).
The 20 μl/well cell supernatant was transferred to a black 96-well plate, a 50 μL/well QUANTI-Luc™ solution was added, and the activity of Lucia luciferase was measured on a multifunctional ELISA reader Spark 10 M (Tecan Company) through a QUANTI-Luc™ luciferase assay system.
Experimental results are shown in Table 1, wherein for IC50 values, “++++” represents IC50<0.05 μM; “+++” represents IC50 between 0.05 μM and 0.2 μM; “++” represents IC50 between 0.2 μM and 1.0 μM; and “+” represents IC50>1.0 μM.
`C[C@H](NC(=O)c1cc(-c2ccc(Cl)cc2)nc(-c2cnn(C)c2)n1)c1ccnc(F)c1` [Compound 15, (S)-6-(4-chlorophenyl)-N-(1-(2-fluoro-4-pyridine)ethyl)-2-(1-methyl-1H-pyrazol-4-yl)pyrimidine-4-formamide]: the IC50 is less than 0.05 µM.
With `C[C@H](NC(=O)c1cc(-c2ccc(Cl)cc2)nc(-c2cnn(C)c2)n1)c1ccc2ncn(C)c2c1` [Compound 54, (S)-6-(4-chlorophenyl)-N-(1-(1-methyl-1H-benzo[d]imidazol-6-yl)ethyl)-2-(1-methyl-1H-pyrazol-4-yl)pyrimidine-4-formamide], the IC50 is less than 0.05 µM.
Take `CNC(=O)c1ccc([C@H](C)NC(=O)c2cc(-c3ccc(Cl)cc3)nc(-c3cnn(C)c3)n2)cc1F` [Compound 52, (S)-6-(4-chlorophenyl)-N-(1-(3-fluoro-4-(methylaminoformyl)phenyl)ethyl)-2-(1-methyl-1H-pyrazol-4-yl)pyrimidine-4-formamide]: the IC50 is less than 0.05 µM.
In the case of `CC[C@H](NC(=O)c1cc(-c2ccc(Cl)cc2)nc(-c2cnn(C)c2)n1)c1ccc(F)cc1` [Compound 18, (S)-6-(4-chlorophenyl)-N-(1-(4-fluorophenyl)n-propyl)-2-(1-methyl-1H-pyrazol-4-yl)pyrimidine-4-formamide], the IC50 is less than 0.05 µM.
For the compound `Cn1cc(-c2nc(C(=O)NC3(C)CCN(CC#N)CC3)cc(-c3ccc(Cl)cc3)n2)cn1` [Compound 46, 6-(4-chlorophenyl)-N-(1-(cyanomethyl)-4-methylpiperidin-4-yl)-2-(1-methyl-1H-pyrazol-4-yl)pyrimidine-4-formamide], the IC50 was less than 0.05 µM.
For `C[C@H](NC(=O)c1cc(-c2ccc(Cl)cc2)nc(-c2ccnc(N)c2)n1)c1ccnc(F)c1` [Compound 37, (S)-6-(4-chlorophenyl)-N-(1-(2-fluoro-4-pyridine)ethyl)-2-(2-aminopyridin-4-yl)pyrimidine-4-formamide], the IC50 was less than 0.05 µM.
Then `Cn1cc(-c2nc(C(=O)Nc3n[nH]c4ccccc34)cc(-c3ccc(Cl)cc3)n2)cn1` [Compound 41, 6-(4-chlorophenyl)-N-(1H-indazol-3-yl)-2-(1-methyl-1H-pyrazol-4-yl)pyrimidine-4-formamide], with greater than 1 µM; and `C[C@H](NC(=O)c1cc(-c2ccc(Cl)cc2)nc(-c2cnn(C)c2)n1)c1ccn2ncnc2c1` [Compound 17], with less than 0.05 µM; and `Cn1cc(-c2nc(C(=O)N[C@H]3CCc4ncccc43)cc(-c3ccc(C(F)(F)F)cc3)n2)cn1` [Compound 56, (S)-6-(4-trifluoromethylphenyl)-N-((S)-6,7-dihydro-5H-cyclopentano[B]pyridin-5-yl)-2-(1-methyl-1H-pyrazol-4-yl)pyrimidine-4-formamide], with less than 0.05 µM.
With `Cn1cc(-c2nc(C(=O)NCC3(c4ccc(Cl)cc4)CC3)cc(-c3ccc(Cl)cc3)n2)cn1` [Compound 22, (S)-6-(4-chlorophenyl)-N-(1-[1-(4-chlorophenyl)cyclopropyl]methyl)-2-(1-methyl-1H-pyrazol-4-yl)pyrimidine-4-formamide], the IC50 is greater than 1 µM.
In the case of `C[C@H](NC(=O)c1cc(-c2ccc(Cl)cc2)nc(-c2cnc(Cl)nc2)n1)c1ccnc(F)c1` [Compound 36, (S)-6-(4-chlorophenyl)-N-(1-(2-fluoro-4-pyridine)ethyl)-2-(2-chloropyrimidin-5-yl)pyrimidine-4-formamide] it was greater than 1 µM; in that of `Cn1cc(-c2nc(C(=O)N[C@H]3CCc4cc(C#N)ccc43)cc(-c3ccc(Cl)cc3)n2)cn1` [Compound 28, (S)-6-(4-chlorophenyl)-N-(5-cyano-(2,3-dihydro)-(−)-1-yl-2-indene)-2-(1-methyl-1H-pyrazol-4-yl)pyrimidine-4-formamide], less than 0.05 µM.
For `C[C@H](NC(=O)c1cc(-c2ccc(C(F)(F)F)cc2)nc(-c2cnn(C)c2)n1)c1ccnc(F)c1` [Compound 33, (S)-6-(4-trifluoromethylphenyl)-N-(1-(2-fluoro-4-pyridine)ethyl)-2-(1-methyl-1H-pyrazol-4-yl)pyrimidine-4-formamide], the IC50 was less than 0.05 µM.
In the case of `Cn1cc(-c2nc(C(=O)NC3(C)CCN(C(=O)C4CC4)CC3)cc(-c3ccc(Cl)cc3)n2)cn1` [Compound 43, 6-(4-chlorophenyl)-N-((4-yl-4-methylpiperidin-1-yl)(cyclopropyl)ketone)-2-(1-methyl-1H-pyrazol-4-yl)pyrimidine-4-formamide], the IC50 was less than 0.05 µM.
In the case of `O=C(N[C@H]1CCc2ncccc21)c1cc(-c2ccc(C(F)(F)F)cc2)nc(-c2cccnc2)n1` [Compound 55, (S)-6-(4-trifluoromethylphenyl)-N-((S)-6,7-dihydro-5H-cyclopentano[B]pyridin-5-yl)-2-(pyridin-3-yl)pyrimidine-4-formamide] it was less than 0.05 µM.
For the compound `Cc1noc(C)c1-c1nc(C(=O)N[C@@H](C)c2ccnc(F)c2)cc(-c2ccc(Cl)cc2)n1` [Compound 59, (S)-6-(4-chlorophenyl)-N-(1-(2-fluoro-4-pyridine)ethyl)-2-(3,5-dimethylisoxazol-4-yl)pyrimidine-4-formamide], the IC50 is greater than 1 µM.
Regarding `C[C@H](NC(=O)c1cc(-c2ccc(Cl)cc2)nc(-c2cnn(C)c2)n1)c1ccnc(C(F)(F)F)c1` [Compound 5, (S)-6-(4-chlorophenyl)-N-(1-(2-trifluoromethyl-4-pyridine)ethyl)-2-(1-methyl-1H-pyrazol-4-yl)pyrimidine-4-formamide], the IC50 was less than 0.05 µM.
Regarding `CC(=O)Nc1ccc([C@H](C)NC(=O)c2cc(-c3ccc(Cl)cc3)nc(-c3cnn(C)c3)n2)cc1F` [Compound 53], the IC50 was less than 0.05 µM.
With `O=C(N[C@H]1CCc2ncccc21)c1cc(-c2ccc(OC(F)(F)F)cc2)nc(-c2cccnc2)n1` [Compound 27, (S)-6-(4-trifluoromethoxyphenyl)-N-((S)-6,7-dihydro-5H-cyclopentano[B]pyridin-5-yl)-2-(3-pyridyl)pyrimidine-4-formamide], the IC50 is less than 0.05 µM.
Consider `C[C@H](NC(=O)c1cc(-c2ccc(Cl)cc2)nc(-c2cnn(C)c2)n1)c1ccnc(C#N)c1` [Compound 12, (S)-6-(4-chlorophenyl)-N-(1-(2-cyano-4-pyridine)ethyl)-2-(1-methyl-1H-pyrazol-4-yl)pyrimidine-4-formamide], for which the IC50 was less than 0.05 µM.
`Cn1cc(-c2nc(C(=O)N[C@H]3CCc4ncccc43)cc(-c3ccc(OC(F)(F)F)cc3)n2)cn1` [Compound 61, (S)-6-(4-trifluoromethoxyphenyl)-N-((S)-6,7-dihydro-5H-cyclopentano[B]pyridin-5-yl)-2-(1-methyl-1H-pyrazol-4-yl)pyrimidine-4-formamide]: the IC50 is greater than 1 µM.
With `C[C@H](NC(=O)c1cc(-c2ccc(C(F)(F)F)cc2)nc(-c2cnn(C)c2)n1)c1ccc(F)c(F)c1` [Compound 32, (S)-6-(4-trifluoromethylphenyl)-N-(1-(3,4-difluorophenyl)ethyl)-2-(1-methyl-1H-pyrazol-4-yl)pyrimidine-4-formamide], the IC50 is less than 0.05 µM.
For the compound `Cn1cc(-c2nc(C(=O)NC3(c4ccc(Cl)cc4)CC3)cc(-c3ccc(Cl)cc3)n2)cn1` [Compound 51, (S)-6-(4-chlorophenyl)-N-(1-(4-chlorophenyl)cyclopropylamine)-2-(1-methyl-1H-pyrazol-4-yl)pyrimidine-4-formamide], the IC50 was less than 0.05 µM.
Regarding `Cn1cc(-c2nc(C(=O)N[C@H]3CCCc4ncccc43)cc(-c3ccc(Cl)cc3)n2)cn1` [Compound 23, (S)-6-(4-chlorophenyl)-N-((S)-5,6,7,8-tetrahydro-6H-quinol-5-yl)-2-(1-methyl-1H-pyrazol-4-yl)pyrimidine-4-formamide], the IC50 was less than 0.05 µM.
Regarding `C[C@H](NC(=O)c1cc(-c2ccc(Cl)cc2)nc(-c2ccnc(F)c2)n1)c1ccnc(F)c1` [Compound 38, (S)-6-(4-chlorophenyl)-N-(1-(2-fluoro-4-pyridine)ethyl)-2-(2-fluoropyridin-4-yl)pyrimidine-4-formamide], the IC50 was less than 0.05 µM.
